What all share (format): in vivo
The test system of test [1] is mouse type II diabetes model (db/db mice). Description: Serum leptin by ELISA in db/db mouse type II diabetes model (Example 2). The following applies: single agent 0.04 g/kg per day by gavage, two weeks, mean ± SD. From the text:
(§1) In the present example, db/db mice (line name BKS.Cg-Dock7^m+/+Lepr^db/Nju) were used to perform hypoglycemic efficacy evaluation test of animals (blood glucose level and leptin). The limonoid compound was selected from obacunone, isoobacunoic acid and obacunone glycoside, and dapagliflozin single administration group, obacunone single administration group, isoobacunoic acid single administration group, obacunone glycoside single administered group, and respective combination thereof with dapagliflozin administration groups were set. Conditions for experimental feeding: as type II diabetes model mice, 6-week-old SPF-grade db/db mice were purchased from the Nanjing Model Biology Institute, and subjected to experimental feeding after 7 days of preliminary feeding. It should be noted that the conditions for raising the mice were as follows: the temperature was 23±1° C., the humidity was 55±10%, the lights were turned on between 7 am and 7 pm (the lights were turned off at other time), and the mice were allowed to freely take in water and feed. […] The data were expressed as mean and standard deviation. The data before and after were analyzed by t-test, and P<0.05 was considered statistically significant.

The test system is the same in test [2]. Description: Blood glucose in db/db mouse type II diabetes model (Example 2, dapagliflozin). The following applies: single agent 0.04 g/kg per day by gavage, two weeks, 1 h after last administration, mean ± SD.
From the text: as §1

Test [3] has the same test system. Description: Blood glucose in db/db mouse type II diabetes model (Example 4, ipragliflozin). The following applies: single agent 0.2 g/kg per day by gavage, two weeks, 1 h after last administration, mean ± SD. From the text: (§2) In the present embodiment, the limonoid compound was selected nomilin, deacetylnomilin, nomilin acid, deacetylnomilin acid glycoside, and ipragliflozin single administration group, nomilin single administration group, deacetylnomilin single administration group, nomilin acid single administered group, deacetylnomilin acid glycoside single administration group, and respective combination thereof with ipragliflozin administration groups were set.
(§3) Conditions for experimental feeding: as type II diabetes model mice, 6-week-old SPF-grade db/db mice were purchased from the Nanjing Model Biology Institute, and subjected to experimental feeding after 7 days of preliminary feeding. It should be noted that the conditions for raising the mice were as follows: the temperature was 23±1° C., the humidity was 55±10%, the lights were turned on between 7 am and 7 pm (the lights were turned off at other time), and the mice were allowed to freely take in water and feed. The experimental feed was mouse growth-stable feed (GB M2118), and the daily feeding and management of the animals were under the responsibility of the animal security department, which provided the animals with sufficient diet and fresh drinking water daily.
(§4) Experimental grouping: male db/db mice (20±2 g) were selected, 18 male mice in each group were tested, and drinking bottles were sterilized weekly. […]

The test system is the same in test [4]. Description: Serum insulin by ELISA in db/db mouse type II diabetes model (Example 4). The following applies: single agent 0.2 g/kg per day by gavage, two weeks, mean ± SD.
From the text: as §2, §3, §4
A general note: ELISA stands for enzyme-linked immunosorbent assay.

For test [5], the system named is mouse pancreatic islet β-cell injury model (STZ). Description: Blood glucose in STZ mouse pancreatic islet β-cell injury model (Example 3, empagliflozin). The following applies: STZ ICR mice; single agent 0.1 g/kg per day by gavage, two weeks; 1 h after last administration; mean ± SD. From the text: In this example, a mouse pancreatic islet β-cell injury model was established by modeling ICR mice with streptozotocin (STZ) (Li Nan et al., Protective effect of pine pollen on kidney damage in diabetic nephropathy mice, Science and Technology Review, 2014, 32 (4/5): 95-99), and used to complete the evaluation of hypoglycemic effect in animals (this model could simulate pancreatic islet β-cell damage state of type I and type II diabetics). The limonoid compound was selected from the group consisting of ichangin, ichangensin, and ichangin glycoside, and empagliflozin single administration group, ichangin single administration group, ichangensi single administration group, ichangin glycoside singe administration group, and respective combination thereof with empagliflozin administration groups were set.
(§5) Conditions of experimental feeding: ICR mice (20±2 g), aged 6 weeks, purchased from Zhejiang Academy of Medical Sciences, and subjected to experimental feeding after 7 days of preliminary feeding. It should be noted that the conditions for raising the mice were as follows: the temperature was 23±1° C., the humidity was 55±10%, the lights were turned on between 7 am and 7 pm (the lights were turned off at other time), and the mice were allowed to freely take in water and feed. […]

For test [6] the test system is unchanged. Description: Blood glucose in STZ mouse pancreatic islet β-cell injury model (Example 1, canagliflozin). The following applies: STZ ICR mice; single agent 0.02 g/kg per day by gavage, two weeks; 1 h after last administration; mean ± SD.
From the text: In this example, a mouse pancreatic islet β-cell injury model was established by modeling ICR mice with streptozotocin (STZ) (Li Nan et al., Protective effect of pine pollen on kidney damage in diabetic nephropathy mice, Science and Technology Review, 2014, 32 (4/5): 95-99), and used to complete the evaluation of hypoglycemic effect in animals (this model could simulate pancreatic islet β-cell damage state of type I and type II diabetics). The limonoid compound was selected from the group consisting of limonin, isolimonic acid, limonin glycoside, and isolimonic acid glycoside, and canagliflozin single administration group, limonin single administration group, isolimonic acid single administration group, limonin glycoside singe administration group, isolimonic acid glycoside singe administration group, and respective combination thereof with canagliflozin administration groups were set.
as §5

4 compounds from patent publication US20220313708A1, “COMBINATION PRODUCT CONTAINING LIMONOID COMPOUND AND SGLT-2 INHIBITOR” (ZHEJIANG YANGSHENGTANG INSTITUTE OF NATURAL MEDICATION CO., …, priority 2019, published 2022) can be followed below.

On to `CCOc1ccc(Cc2cc([C@@H]3O[C@H](CO)[C@@H](O)[C@H](O)[C@H]3O)ccc2Cl)cc1` [Dapagliflozin, dapagliflozin], for which the Leptin in test [1] is 25.34 ± 5.26 pg/mL. For the same compound, the Blood glucose value in test [2] came to 12.0 ± 2.9 mmol/L.

For the compound `OC[C@H]1O[C@@H](c2ccc(F)c(Cc3cc4ccccc4s3)c2)[C@H](O)[C@@H](O)[C@@H]1O` [Ipragliflozin, ipragliflozin], in test [3], the Blood glucose value is given as 10.3 ± 2.3 mmol/L. The Insulin in test [4] turned out to be 7.61 ± 1.03 pg/mL.

For the compound `OC[C@H]1O[C@@H](c2ccc(Cl)c(Cc3ccc(O[C@H]4CCOC4)cc3)c2)[C@H](O)[C@@H](O)[C@@H]1O` [Empagliflozin, empagliflozin], the Blood glucose value in test [5] was 13.9 ± 2.0 mmol/L.

With `Cc1ccc([C@@H]2O[C@H](CO)[C@@H](O)[C@H](O)[C@H]2O)cc1Cc1ccc(-c2ccc(F)cc2)s1` [Canagliflozin, canagliflozin], in test [6], the Blood glucose value came out at 19.1 ± 4.1 mmol/L.
